# Measurements from patent publication US20220057378A1, “MICROBIAL MICROFLUIDIC BIOSENSOR” (priority 2015, published 2022).
# Tests used:
# [1] = test system: E. coli MG1655/As1; assay: on-chip time-lapse induction of promoter construct (GFP, gill chip); assay type: cell-based
# [2] = test system: E. coli MG1655/As3; assay: as above; assay type: cell-based
# Description: The on-chip time-lapse induction response of each promoter construct in this table can be seen in FIG. 36. In each figure panel, the moment of toxin introduction is represented as a step in the red trace.
# [3] = test system: pRS18; assay: SVM classification of GFP sensor responses (toxin / no toxin); assay type: cell-based, E. coli; conditions: from classification accuracy and ROC curves; plasmid pRS18
# Description: (§1) Computational models to determine the threshold of detection for specific sensors based on models of experimental GFP responses. We used machine learning techniques to determine the relationships between the GFP output signal and the presence of a toxin. We have created a database containing the collected sensor response data. We have quantified the GFP threshold of detection for each sensor construct. We have constructed Receiver Operating Characteristic (ROC) curves for each sensor to achieve robust sensing. We constructed machine learning models capable of inferring the relationships between the GFP sensor responses and the presence or absence of a toxin at a given concentration. […] The optimal meta-parameters of the SVM classifier were determined by applying a 5-crossvalidation during the training phase (2). In order to have a reliable estimate of the performance of the model when deployed in real environments, we measured its performance over a set of samples (test patterns) not seen during the training phase. The SVM's performance was determined by the percentage of test samples correctly labeled as toxin/no toxin (classification accuracy). […]
# (§2) In order to have a reliable estimate of the performance of the model when deployed in real environments, we measured its performance over a set of samples (test patterns) not seen during the training phase. […]
# [4] = test system: pZA47a; assay: as above; assay type: cell-based, E. coli; conditions: from classification accuracy and ROC curves
# Description: as §1, §2
# [5] = test system: As7 with luxCDABE operon; assay: plate reader induction of arsenic sensor, Lux reporter; assay type: cell-based; conditions: Tecan plate reader
# Description: Luminescent reporters. […] In FIG. 8, we compare these reporters driven by an arsenic-responsive promoter, where the induction response was measured side-by-side using a Tecan plate reader.
# For comparison, the arsenic concentration used for testing the GFP construct in a microfluidic device was 130 nM, or 0.13 μM. Thus, replacing GFP with Lux promises to greatly increase the sensitivity of the biosensor.
# The arsenic sensor construct As7 was modified to replace the gfp gene with the luxCDABE operon, and relative induction (fluorescence or luminescence) of the two constructs was tested side-by-side using a Tecan Infinite M200 Pro plate reader (see FIG. 38). […] In contrast, the GFP construct was sensitive to arsenic only above a concentration of 26 nM. For comparison, we were able to detect an arsenic concentration of 130 nM using the GFP construct in a microfluidic device. Thus, replacing GFP with Lux promises to greatly increase the sensitivity of the biosensor.
# [6] = test system: E. coli MG1655/Cd1; assay: on-chip time-lapse induction of promoter construct (GFP, gill chip); assay type: cell-based
# Description: (§3) For on-chip induction experiments, strains were loaded into the device and grown in M9 minimal medium with 0.4% glucose and 50 μg/ml spectinomycin (for plasmid maintenance) for 2 days in the absence of toxin. Cells were imaged under 4× brightfield and GFP fluorescence filters on an Olympus IX-81 microscope every 2 min for 6 h under these non-inducing conditions to generate a fluorescence baseline. The toxin was then introduced to induce GFP expression and the cells were imaged every 2 min for 6 h.
# (§4) To determine the response to toxin induction, the raw fluorescence images before and after induction were compared. The image stacks were analyzed using a custom ImageJ script to measure the average GFP signal over time for each cell trap. Any linear trend in the uninduced fluorescence data due to cell growth was subtracted from the data. In this manner, the dynamic signal-to-noise ratio (SNR) was calculated as: (current fluorescence−mean uninduced fluorescence)/(standard deviation of uninduced fluorescence).
# (§5) This microfluidic platform was then used to measure the response of several toxin responsive promoter constructs identified from the literature and synthesized by Transcriptic. […] Note that SNR values greater than 2 indicate a significant response.
# [7] = test system: E. coli LABEC01/Cr5; assay: as above; assay type: cell-based
# Description: as §3, §4, §5
# [8] = test system: E. coli MG1655 containing pCueCopA; assay: on-chip step-induction of copper-sensing plasmid pCueCopA (GFP); assay type: cell-based; conditions: pCueCopA in E. coli MG1655, LB medium
# Description: Second, induction of pCue-CopA, a copper-sensing plasmid, was tested in the microfluidic device. A recombinant strain of E. coli MG1655 containing pCueCopA was vacuum-loaded into a microfluidic device, grown to confluence, and step-induced with copper sulfate (CuSO4) in LB medium. Images were collected using an Etaluma LumaScope microscope with 20× objective magnification. Step induction was again performed using the “Dial-A-Wave” automated flow control system. The cells were sequentially exposed to copper concentrations of 0 μM, 25 μM, 52 μM, 77 μM, and 99 μM in 6-h windows.
# [9] = test system: E. coli LABEC01/Pb2; assay: on-chip time-lapse induction of promoter construct (GFP, gill chip); assay type: cell-based
# Description: as §3, §4, §5
# [10] = 0.13 μM arsenic, 6 h induction, SNR > 2 = significant response
smiles,measurement,setting,value
[As] [Arsenic],SNR after 6 h,[1]; [10],20
same,Concentration Sensed in Microfluidic Device,"[1]; arsR/parsR from E. coli plasmid, native RBS",0.13 µM
same,SNR after 6 h,[2]; [10],33
same,Concentration Sensed in Microfluidic Device,"[2]; arsR/parsR from E. coli genome, synthetic RBS",0.13 µM
same,threshold of detection,[3],0.2 µM
same,threshold of detection,[4],0.1 µM
same,"arsenic concentration detected, Lux construct",[5],0.2 nM
[Cd] [Cadmium],SNR after 6 h,"[6]; 0.04 μM cadmium, 6 h induction, SNR > 2 = significant response",17
same,Concentration Sensed in Microfluidic Device,"[6]; cadC/pcadC from S. aureus plasmid, native RBS",0.04 µM
[Cr+6] [Chromium(VI)],SNR after 6 h,"[7]; 5 μM chromium(VI), 6 h induction, SNR > 2 = significant response",5
same,Concentration Sensed in Microfluidic Device,"[7]; chrB/pchrB from O. tritici transposon, native RBS",5 µM
[Cu] [Copper],copper concentration detected on-chip (GFP),[8],25 µM
[Pb] [Lead],SNR after 6 h,"[9]; 7 μM lead, 6 h induction, SNR > 2 = significant response",18
same,Concentration Sensed in Microfluidic Device,"[9]; pbrR/ppbrR from C. metallidurans plasmid, synthetic RBS",7 µM
